Measured values taken from article PMC4467156, “A new chemical inhibitor of angiogenesis and tumorigenesis that targets the VEGF signaling pathway upstream of Ras” (Oncotarget, 2015).

Columns and labels:
PKCβI = PKCβI (Homo sapiens, UniProt P05771); test: In vitro kinase assay PKCβI; format: biochemical; settings: concentrations up to 50 μM
Method: We first wondered whether COB223 required to be internalized to exert its biological effect. For this, we synthesized a covalent complex between BSA and COB223 and purified it. […] In vitro kinase assays were performed with a panel of purified protein-kinases involved in mitogenic signaling, including VEGFR2, FGFR1, FGFR2, PDGFRß, Met, Raf, MEK1, ERK1, ERK2, PKCα, PKCβI, PKCβII, PKCζ as indicated in Table 2. […] We then analyzed the effect of COB223 on VEGF-induced phosphorylations of VEGFR2, MEK and ERK1/2 (Figure 9). […] (Figure 9A, 9B). […] It was also specific of the p42/p44 MAP kinase pathway as activation of p38 MAP kinase phosphorylation in HUVEC cells by VEGF or serum was unaffected by COB223 (data not shown). The activation of src phosphorylation by VEGF in HUVECs was also unaffected by COB223 (data not shown).

ERK1/2 phosphorylation = test: Western blot, ERK1/2 phosphorylation in HUVEC; format: cell-based, human
Method: Figure 9 Effect of COB223 on growth factor-induced VEGF-R2, MEK and ERK phosphorylations (A) Serum-starved HUVEC cells were incubated for 15 min in the presence of either 10 ng/mL VEGF-A or 20 ng/mL FGF-2 and in the absence or the presence of 25 μM COB223. The phosphorylations of VEGFR2 on tyrosine 1175 or tyrosine 1214, of MEK and ERK1/2 were then analyzed by Western blot analysis of the cell lysates as described in Material and Methods. Western blots for total VEGFR2, MEK and ERK1/2 were used as loading controls. The blots shown in Figure 9A were obtained in one representative experiment. (B) The hybridization signals observed in 5 similar but independent experiments were quantitated and the ratios between phospho-VEGFR2(Y1175) or (Y1214) and VEGFR2 signals were normalized to the value observed in the absence of COB223. (C) The hybridization signals observed in 5 similar but independent experiments were quantitated and the ratios between phospho-ERK1/2 and ERK1/2 and between phospho-MEK and MEK were normalized to the values observed in the absence of COB223. Additional experiments performed with 10% fetal calf serum (FCS) as a mitogen were included in this analysis. * : p < 0.05; ** : p < 0.01
Figure 10 Effect of PKC inhibitors on PMA-, VEGF- and FGF2-induced ERK phoshorylation (A) Serum-starved HUVEC cells were incubated for 15 min in the presence of 10 ng/mL VEGF-A or 20 ng/mL FGF-2 and in the absence or the presence of 25 μM COB223 or 5 μM Gö6983 and 5 μM Gö6976. The phosphorylation ERK1/2 was then analyzed by Western blot analysis of the cell lysates as described in Material and Methods. Western blots for total ERK1/2 were used as loading controls. (B) Serum-starved HUVEC cells were incubated for 5 min in the presence of 200 nM of PMA and in the absence or the presence of 25 μM COB223 or 5 μM Gö6983 and 5 μM Gö6976. The hybridization signals observed were quantitated and the ratio between phospho-ERK1/2 and ERK1/2 was normalized to the values observed in the absence of COB223. Similar results were obtained in 2 independent experiments.
Serum-starved HUVEC cells were incubated for 15 min in the presence of either 10 ng/mL VEGF-A or 20 ng/mL FGF-2 and in the absence or the presence of indicated concentration of COB223. COB223 was incubated 15 min prior to stimulation. Cells were lysed in RIPA buffer ( Tris HCl pH 7.4 10 mM, NaCl 150 mM, SDS 0.1%, Na Deoxycholate 0.5%, EDTA 1 mM, Triton X100 1% and protease inhibitor cocktail (Sigma) for protein extraction. After fractionation of proteins on a 4–15% SDS-PAGE gel and blotting to a nitrocellulose membrane, immunoblotting detection of proteins was done using indicated antibodies according to manufacturer's instruction.

HMEC-GFP cells = test: Scratch wound closure assay, HMEC-GFP; format: cell-based, human; settings: Homo sapiens
Excerpt: In order to adapt the endothelial scratch wounding assay to the constraints of high throughput screening, we decided to use an endothelial cell line rather than primary cultures for the sake of reproducibility. Since angiogenesis is triggered by capillary endothelial cells, we selected the HMEC-1 cell line which consists of human dermal microvascular endothelial cells stably expressing SV40 […] antigen. We infected this cell line with GFP-encoding retroviral particles and selected one clone (thereafter named HMEC-GFP) that presented a high level of fluorescence and a strong proliferation rate (doubling time in the presence of serum: 22 h). We controlled that GFP expression was stable over at least 50 passages and that these cells still expressed endothelial markers such as VE-cadherin and CD31. In a standard assay, HMEC-GFP cells were grown until confluence in 96-well plates in the presence of serum, scratched with the multi-tip dispenser of the HTS automat, gently rinsed twice to eliminate detached cells and cell debris that could liberate inflammatory and potentially angiogenic cytokines, and incubated for 24 h in the presence of serum and the compounds to be tested. Each well was photographed at time 0 h (after wounding) and 24 h under a motorized epifluorescence microscope and the digitized images were analyzed using Image J to determine the percentage of wound closure (Figure 1A, 1B). Under our standard conditions, the closure rate was 72 ± 4% in the positive controls and 27 ± 4.% in the negative controls.
Confluent cell monolayers were wounded with a plastic pipet tip, washed gently with phosphate buffer saline (PBS) and treated with complete media containing molecules, as indicated. Cells were placed at 37°C into the incubator and photographed at indicated times. Quantitation of closure of the monolayer was performed using the NIH Image J program (http://rsbweb.nih.gov/ij/). Results are expressed as percentage of wound closure at t = 24 h as compared to the initial wound at t = 0 h.

Chain of PKCβI (P05771 whole entry): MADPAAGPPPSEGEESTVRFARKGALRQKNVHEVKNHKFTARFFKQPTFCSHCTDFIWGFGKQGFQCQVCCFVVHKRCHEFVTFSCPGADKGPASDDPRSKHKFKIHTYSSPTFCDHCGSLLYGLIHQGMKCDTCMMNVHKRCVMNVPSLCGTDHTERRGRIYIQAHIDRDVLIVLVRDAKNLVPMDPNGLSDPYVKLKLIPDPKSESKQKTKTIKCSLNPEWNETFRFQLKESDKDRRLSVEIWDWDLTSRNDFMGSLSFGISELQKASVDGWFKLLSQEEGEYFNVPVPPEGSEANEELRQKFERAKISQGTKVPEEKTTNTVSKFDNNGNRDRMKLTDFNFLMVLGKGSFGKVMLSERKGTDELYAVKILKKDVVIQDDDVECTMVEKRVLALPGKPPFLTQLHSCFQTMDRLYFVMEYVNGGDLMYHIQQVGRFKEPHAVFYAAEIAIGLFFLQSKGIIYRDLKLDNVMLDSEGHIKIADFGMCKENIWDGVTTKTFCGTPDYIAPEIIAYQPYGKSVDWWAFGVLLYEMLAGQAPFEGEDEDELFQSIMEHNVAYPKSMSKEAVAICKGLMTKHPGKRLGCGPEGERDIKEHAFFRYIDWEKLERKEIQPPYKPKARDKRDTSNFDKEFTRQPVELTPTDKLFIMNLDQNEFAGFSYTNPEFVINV

With `CN(C)c1cccc2c(S(=O)(=O)NCCCN3CCN(CCCNC(=O)OC(C)(C)C)CC3)cccc12` [COB223, tert-Butyl 3-(4-(3-(5-(dimethylamino)naphthalene-1-sulfonamido)propyl)piperazin-1-yl) propylcarbamate] the “kinase inhibition” value (PKCβI) was “None of them was inhibited”, the “VEGF-induced phosphorylation of ERK1/2” value (ERK1/2 phosphorylation; HUVEC, 10 ng/mL VEGF-A 15 min, 25 μM COB223) was “significantly inhibited” and the “phosphorylation of ERK1/2 induced by the PKC activator PMA” value (ERK1/2 phosphorylation; HUVEC, 200 nM PMA 5 min, 25 μM COB223) was “inhibited”. The “concentration at which inhibition of MAP kinase phosphorylation was detectable” value (ERK1/2 phosphorylation; dose-response study) was 5 µM, the “concentration at which inhibition of MAP kinase phosphorylation was statistically significant” value (ERK1/2 phosphorylation; dose-response study) was 20 µM and the EC50 (HMEC-GFP cells; as quoted) was 5 µM. It also gave an IC50 (HMEC-GFP cells; wound closure after 24 h, 10% FCS, tested 3.125 μM to 100 μM) of 5 µM.
